Test system: alopecia in mice
Experiment: Animal experiment: therapeutic effect on alopecia in bilaterally ovariectomized mice after oral administration
Type: in vivo
Conditions: for Cured / Ineffective / Ameliorated: number of mice of 10 per group; for Cured / Ineffective / Ameliorated / Total effective rate (%) / cure rate / back hair of mice after administration (FIGS. 3, 8 and 9): ovariectomized female mice, oral 10 mg/kg/day, 4 weeks; for Cured: cured = no difference with the normal group; for Ineffective: no difference from the model group; for Ameliorated: significant difference from the model group; for Total effective rate (%) / cure rate: 10 mice per group; for promoting hair follicle growth: summary statement; for back hair of mice after administration (FIGS. 3, 8 and 9): compared with the normal group (FIG. 1)
Procedure: Experiment method: 100 8-week-old female mice were divided into 10 groups with 10 mice in each group. They were randomly divided into a normal group, a model group and administration groups. The mice in the model group and the administration groups were fasted overnight and subjected to bilateral ovariectomy after anesthesia with 0.1 ml of 10% chloral hydrate. After the bilateral ovariectomy, penicillin injection 0.1 ml/per mouse was injected once a day for seven times to prevent infection. After 4 weeks of modeling, the experiment was carried out by oral administration. The medicament was prepared with normal saline, and administered 10 mg/kg/day to each mouse in the administration groups. The normal group and model group were given only normal saline. After 4 weeks of administration, the hair on the back of the mice was observed.
Cured: Alopecia was completely cured, with no difference with the normal group.
Ameliorated: Alopecia was ameliorated, with significant difference from the model group, but small difference from the normal group.
Ineffective: Alopecia was not ameliorated, with no difference from the model group.

| Compound | Cured | Ineffective | Ameliorated | Total effective rate (%) (10 mg/kg/day) | promoting hair follicle growth | Total effective rate (%) | cure rate | back hair of mice after administration (FIGS. 3, 8 and 9) |
| --- | --- | --- | --- | --- | --- | --- | --- | --- |
| CCOC(=O)c1sc(NC(=O)/C(=N/Nc2ccccc2C(=O)OC)C(C)=O)nc1C [Compound 4] | 8 | 0 | 2 | 100% | significant advantages |  |  |  |
| CCOC(=O)c1sc(NC(=O)/C(=N/Nc2ccc(F)cc2C(=O)O)C(C)=O)nc1C [Compound 10] | 2 | 5 | 3 |  |  | 50% |  |  |
| CCOC(=O)c1sc(NC(=O)/C(=N/Nc2c(C#N)cccc2C(=O)O)C(C)=O)nc1C [Compound 12] | 8 | 1 | 1 |  |  | 90% |  |  |
| CC(=O)/C(=N\Nc1ccccc1C(=O)O)C(=O)Nc1ccccc1 [Compound 24] | 10 | 0 | 0 | 100% | significant advantages |  | 100% | completely recovered |
| CC(=O)/C(=N\Nc1ccccc1C(=O)O)C(=O)N1CCOCC1 [Compound 28] | 10 | 0 | 0 | 100% | significant advantages |  | 100% | completely recovered |
| CC(=O)/C(=N\Nc1ccccc1C(=O)O)C(=O)Nc1cccc(O)n1 [Compound 30] | 4 | 3 | 3 |  |  | 70% |  |  |

Source: patent publication US12479809B2, “Hydrazone amide derivative and application thereof in preparation of medicaments for preventing and treating alopecia” (SHENZHEN CELL INSPIRE PHARMACEUTICAL DEVELOPMENT CO., LTD., priority 2019, dated 2025)
